# Experimental data from patent US20250230193A1, “CYCLIC COMPOUND HAVING SELECTIVE KRAS INHIBITORY EFFECT ON HRAS AND NRAS” (CHUGAI SEIYAKU KABUSHIKI KAISHA, priority 2022, published 2025).
# Experiments:
# [1] = molecular target: GDP-bound NRAS wild-type protein (Homo sapiens, UniProt P01111); assay: Binding to NRAS by surface plasmon resonance (SPR), Single Cycle Kinetics; details: SPR; KD ratio class
# [2] = molecular target: GDP-bound HRAS wild-type protein (Homo sapiens, UniProt P01112); assay: Binding to HRAS by surface plasmon resonance (SPR), Single Cycle Kinetics; details: SPR; KD ratio class
# [3] = system: human lung cancer strain NCI-H441; assay: cells; details: NCI-H441, 96 h, read-out: NCI-H441 IC50 (nM)
# Chain of GDP-bound NRAS wild-type protein (P01111 whole entry): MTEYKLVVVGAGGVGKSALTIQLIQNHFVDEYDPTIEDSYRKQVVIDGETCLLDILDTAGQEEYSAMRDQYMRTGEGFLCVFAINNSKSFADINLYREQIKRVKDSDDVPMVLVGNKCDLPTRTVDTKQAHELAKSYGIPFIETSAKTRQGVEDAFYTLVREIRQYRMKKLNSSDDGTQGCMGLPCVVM
# Chain of GDP-bound HRAS wild-type protein (P01112 whole entry): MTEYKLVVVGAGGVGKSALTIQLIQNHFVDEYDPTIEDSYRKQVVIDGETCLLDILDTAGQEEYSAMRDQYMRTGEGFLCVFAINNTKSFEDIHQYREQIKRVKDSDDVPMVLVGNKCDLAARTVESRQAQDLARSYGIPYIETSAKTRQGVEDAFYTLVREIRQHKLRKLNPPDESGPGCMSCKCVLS
Compound,NRAS/KRAS (ratio of KD value for GDP-bound NRAS wild-type protein to KD value for KRAS) [1],HRAS/KRAS (ratio of KD value for GDP-bound HRAS wild-type protein to KD value for KRAS) [2],IC50 [3] [nM]
CCO[C@@H]1C[C@H]2C(=O)NC3(CCC3)C(=O)N(C)[C@@H](C3CCCC3)C(=O)N(C)[C@H](C(=O)N(C)C)CC(=O)N(C)[C@@H](CC(C)(C)C)C(=O)N[C@@H]([C@@H](C)CC)C(=O)N(C)CC(=O)N(C)[C@H]3C/C=C\CCN(C3=O)[C@@H](CC3CCC(F)(F)CC3)C(=O)N(C)CC(=O)N[C@@H](CCc3cc(F)c(C(F)(F)F)c(F)c3)C(=O)N2C1 [PP1460],A (a compound having 10 or more and less than 20 is denoted as A),A (a compound having 10 or more and less than 20 is denoted as A),32.9
CC[C@H](C)[C@@H]1NC(=O)[C@H](CC2CC2)N(C)C(=O)C[C@@H](C(=O)N(C)C)N(C)C(=O)[C@H](C2CCCC2)N(C)C(=O)C2(CC(C)(C)C2)NC(=O)[C@@H]2C[C@@H](C(F)(F)F)CN2C(=O)[C@H](CCc2cc(F)c(C(F)(F)F)c(F)c2)NC(=O)CN(C)C(=O)[C@H](Cc2ccc(F)cc2)N2CC/C=C\C[C@@H](C2=O)N(C)C(=O)CN(C)C1=O [PP1507],A (a compound having 10 or more and less than 20 is denoted as A),A (a compound having 10 or more and less than 20 is denoted as A),16.2
CCO[C@@H]1C[C@H]2C(=O)NC3(CCC3)C(=O)N(C)[C@@H](C(CC)CC)C(=O)N(C)[C@H](C(=O)N3CCCC3)CC(=O)N(C)[C@@H](COC)C(=O)N[C@@H]([C@@H](C)CC)C(=O)N(C)CC(=O)N(C)[C@H]3C/C=C\CCN(C3=O)[C@@H](CC3CCCCC3)C(=O)N(C)CC(=O)N[C@@H](CCc3cc(F)c(C(F)(F)F)c(F)c3)C(=O)N2C1 [PP1438],AA (a compound having 20 or more is denoted as AA),A (a compound having 10 or more and less than 20 is denoted as A),89.4
CC[C@H](C)[C@@H]1NC(=O)[C@H](CC2CC2)N(C)C(=O)C[C@@H](C)N(C)C(=O)[C@H](C2CCCC2)N(C)C(=O)C2(CCC2)NC(=O)[C@H](CC(F)F)N(C)C(=O)[C@H](CCc2cc(F)c(C(F)(F)F)c(F)c2)NC(=O)CN(C)C(=O)[C@H](Cc2ccc(C(F)(F)F)cc2)N2CC/C=C\C[C@@H](C2=O)N(C)C(=O)CN(C)C1=O [PP1405],A (a compound having 10 or more and less than 20 is denoted as A),A (a compound having 10 or more and less than 20 is denoted as A),466
CCCCCC[C@H]1C(=O)N[C@@H]([C@@H](C)CC)C(=O)N(C)CC(=O)N(C)[C@H]2C/C=C\CCN(C2=O)[C@@H](Cc2ccc(C(F)(F)F)cc2)C(=O)N(C)CC(=O)N[C@@H](CCc2ccc(Cl)c(Cl)c2)C(=O)N2C[C@H](OCC)C[C@H]2C(=O)NC2(CCC2)C(=O)N(C)[C@@H](C(CC)CC)C(=O)N(C)[C@H](C(=O)N(C)C)CC(=O)N1C [PP1218],AA (a compound having 20 or more is denoted as AA),A (a compound having 10 or more and less than 20 is denoted as A),67.9
CCO[C@@H]1C[C@H]2C(=O)NC3(CCC3)C(=O)N(C)[C@@H](C(CC)CC)C(=O)N(C)[C@H](C(=O)N(C)C)CC(=O)N(C)[C@@H](COC)C(=O)N[C@@H]([C@@H](C)CC)C(=O)N(C)CC(=O)N(C)[C@H]3C/C=C\CCN(C3=O)[C@@H](Cc3ccc(C(F)(F)F)cc3)C(=O)N(C)CC(=O)N[C@@H](CCc3ccc(C(F)(F)F)c(OC)c3)C(=O)N2C1 [PP1213],AA (a compound having 20 or more is denoted as AA),A (a compound having 10 or more and less than 20 is denoted as A),40.4
CCO[C@@H]1C[C@H]2C(=O)NC3(CCC3)C(=O)N(C)[C@@H](C3CCCC3)C(=O)N(C)[C@H](C)CC(=O)N(C)[C@@H](CC(C)C)C(=O)N[C@@H]([C@@H](C)CC)C(=O)N(C)CC(=O)N(C)[C@H]3C/C=C\CCN(C3=O)[C@@H](Cc3ccc(F)cc3C)C(=O)N(C)CC(=O)N[C@@H](CCc3cc(F)c(C(F)(F)F)c(F)c3)C(=O)N2C1 [PP1493],B (a compound having 3 or more and less than 10 is denoted as B),B (a compound having 3 or more and less than 10 is denoted as B),135
CCO[C@@H]1C[C@H]2C(=O)NC3(CCCC3)C(=O)N(C)[C@@H](C3CCCC3)C(=O)N(C)[C@H](C(=O)N(C)C)CC(=O)N(C)[C@@H](CC)C(=O)N[C@@H]([C@@H](C)CC)C(=O)N(C)CC(=O)N(C)[C@H]3CC[C@@H](C)CN(C3=O)[C@@H](Cc3ccc(C(F)(F)F)cc3)C(=O)N(C)CC(=O)N[C@@H](CCc3cc(F)c(C(F)(F)F)c(F)c3)C(=O)N2C1 [PP1370],C (A compound having a KD ratio of 0.1 or more and less than 3 is denoted as C),C (A compound having a KD ratio of 0.1 or more and less than 3 is denoted as C),2.3
CCO[C@@H]1C[C@H]2C(=O)NC3(CCC3)C(=O)N(C)[C@@H](C(CC)CC)C(=O)N(C)[C@H](C(=O)N(C)C)CC(=O)N(C)[C@@H](CC)C(=O)N[C@@H]([C@@H](C)CC)C(=O)N(C)CC(=O)N(C)[C@H]3C/C=C\CCN(C3=O)[C@@H](Cc3ccc(C(F)(F)F)cc3)C(=O)N(C)CC(=O)N[C@@H](CCc3ccc(Cl)c(Cl)c3)C(=O)N2C1 [PP1215],AA (a compound having 20 or more is denoted as AA),A (a compound having 10 or more and less than 20 is denoted as A),33.4
CCO[C@@H]1C[C@H]2C(=O)NC3(CCC3)C(=O)N(C)[C@@H](C(CC)CC)C(=O)N(C)[C@H](C(=O)N(C)C)CC(=O)N(C)[C@@H](CC3CCCC3)C(=O)N[C@@H]([C@@H](C)CC)C(=O)N(C)CC(=O)N(C)[C@H]3C/C=C\CCN(C3=O)[C@@H](Cc3ccc(C(F)(F)F)cc3)C(=O)N(C)CC(=O)N[C@@H](CCc3ccc(C(F)(F)F)c(OC)c3)C(=O)N2C1 [PP1212],AA (a compound having 20 or more is denoted as AA),A (a compound having 10 or more and less than 20 is denoted as A),35.6
CCO[C@@H]1C[C@H]2C(=O)NC3(CCC3)C(=O)N(C)[C@@H](C(CC)CC)C(=O)N(C)[C@H](C(=O)N(C)C)CC(=O)N(C)[C@@H](CC3CC3)C(=O)N[C@@H]([C@@H](C)CC)C(=O)N(C)CC(=O)N(C)[C@H]3C/C=C\CCN(C3=O)[C@@H](Cc3ccc(C(F)(F)F)cc3)C(=O)N(C)CC(=O)N[C@@H](CCc3cc(F)c(Cl)c(F)c3)C(=O)N2C1 [PP1233],AA (a compound having 20 or more is denoted as AA),A (a compound having 10 or more and less than 20 is denoted as A),34.7
CCO[C@@H]1C[C@H]2C(=O)NC3(CCC3)C(=O)N(C)[C@@H](C3CCCC3)C(=O)N(C)[C@H](C(=O)N3CCCC3)CC(=O)N(C)[C@@H](CC3CCC3)C(=O)N[C@@H]([C@@H](C)CC)C(=O)N(C)CC(=O)N(C)[C@H]3C/C=C\CCN(C3=O)[C@@H](Cc3ccc(C)cc3)C(=O)N(C)CC(=O)N[C@@H](CCc3cc(F)c(C(F)(F)F)c(F)c3)C(=O)N2C1 [PP1425],A (a compound having 10 or more and less than 20 is denoted as A),B (a compound having 3 or more and less than 10 is denoted as B),20.2
CC[C@H](C)[C@@H]1NC(=O)[C@H](CC2CC2)N(C)C(=O)C[C@@H](C(=O)N(C)C)N(C)C(=O)[C@H](C2CCCC2)N(C)C(=O)C2(CCCC2)NC(=O)[C@@H]2CCCN2C(=O)[C@H](CCc2ccc(C(F)(F)F)c(Cl)c2)NC(=O)CN(C)C(=O)[C@H](Cc2ccc(C(F)(F)F)cc2)N2C[C@H](C)CC[C@@H](C2=O)N(C)C(=O)CN(C)C1=O [PP1346],B (a compound having 3 or more and less than 10 is denoted as B),B (a compound having 3 or more and less than 10 is denoted as B),7.2
CCO[C@@H]1C[C@H]2C(=O)NC3(CC(C)(C)C3)C(=O)N(C)[C@@H](C(CC)CC)C(=O)N3CCC[C@@H]3CC(=O)N(C)[C@@H](CC)C(=O)N[C@@H]([C@@H](C)CC)C(=O)N(C)CC(=O)N(C)[C@H]3C/C=C\CCN(C3=O)[C@@H](Cc3ccc(C(F)(F)F)cc3)C(=O)N(C)CC(=O)N[C@@H](CCc3cc(F)c(C(F)(F)F)c(F)c3)C(=O)N2C1 [PP1605],A (a compound having 10 or more and less than 20 is denoted as A),A (a compound having 10 or more and less than 20 is denoted as A),31.6
